For one experiment, the system named is human liver cancer JHH-7. The experiment is described as follows: Growth suppression of human liver cancer JHH-7 transplanted in nude mice. The experiment is classed as in vivo. Particulars: for tumor volume: nude mice, TM-411 3 mg/kg oral daily 20 days, 5-FU 15.2 mg/kg oral 8th to 12th day; for effect on suppression of the growth of the tumor (in words): nude mice transplanted with JHH-7, same doses as Table 2. On the procedure:
Fluorouracil (hereinafter, abbreviated to “5-FU”), which is a general name of that manufactured by Kyowa Hakko Kogyo Co., Ltd., was used as a chemotherapeutic agent.
A tumor cell mass of human liver cancer JHH-7 was subcutaneously transplanted in dorsal portions of 6-week-old BALB/cAJcl-nu nude mice through a trocar. When the tumor volume reached 100 to 300 mm^3, the administration was started. TM-411 was orally administered once a day at a dose of 3 mg/kg for 20 days every day. 5-FU was orally administered at a dose of 15.2 mg/kg for 5 days every day from the 8th day to the 12th day.
In a combination use group of TM-411 and 5-FU, each agent was administered at the same amount and the same administration route as those in the single administration. Tumor diameters were measured every day from the day of the start of the administration (the 1st day) to the next day of the completion of the administration (the 21st day), and effect on suppression of the growth was investigated. […] In a control group, physiological saline was administered at the same amount and the same administration route as those in the single administration of each agent.

A further experiment deals with human liver cancer HePG2. The experiment is described as follows: Growth suppression of human liver cancer HePG2 transplanted in nude mice. Particulars: for tumor volume: nude mice, TM-411 1 mg/kg oral daily 20 days, ADR 5 mg/kg i.v. once on first day; for effect on suppression of the growth of the tumor (in words): nude mice transplanted with HePG2, same doses as Table 3. It is filed as in vivo. On the procedure:
Doxorubicin (hereinafter, abbreviated to “ADR”), which is a general name of that manufactured by Kyowa Hakko Kogyo Co., Ltd., was used as a chemotherapeutic agent.
About 2×2×2 mm of a tumor cell mass of human liver cancer HePG2 was subcutaneously transplanted in dorsal portions of 6-week-old BALB/cAJcl-nu nude mice through a trocar. The administration was started on the day (defined as the first day) two days after the transplantation. TM-411 was orally administered at a dose of 1 mg/kg for 20 days every day from the first day. ADR was intravenously administered at a dose of 5 mg/kg once on the first day.
In a combination use group of TM-411 and ADR, each agent was administered at the same amount and the same administration route as those in the single administration. Tumor diameters were measured every day from the day of the start of the administration (the 1st day) to the day of the completion of the administration (the 20th day), and effect on suppression of the growth was investigated. […] In a control group, physiological saline was administered at the same amount and the same administration route as those in the single administration of each agent.

For experiment [1], the system named is human breast cancer Br-10. The experiment in a line: Growth suppression of human breast cancer Br-10 transplanted in nude mice. Conditions: for tumor volume: nude mice, TM-411 1 mg/kg oral daily 28 days, DXL 7.5 mg/kg i.v. every 4 days three times; for effect on suppression of the growth of the tumor (in words): nude mice transplanted with Br-10, same doses as Table 1. The experiment is classed as in vivo, mouse. The source says:
Tamibarotene (hereinafter, simply abbreviated to “TM-411”) was used as a synthetic retinoid and was also used in the following other Examples. Taxotere (hereinafter, abbreviated to “DXL”), which is a general name of that manufactured by sanofi-aventis K.K., was used as a chemotherapeutic agent.
A tumor cell mass of human breast cancer Br-10 was subcutaneously transplanted in dorsal portions of 6-week-old BALB/cAJcl-nu nude mice through a trocar. When the tumor volume reached 100 to 300 mm^3, the administration was started. TM-411 was orally administered once a day at a dose of 1 mg/kg for 28 days every day. DXL was intravenously administered from the first day at a dose of 7.5 mg/kg every 4 days three times.
In a combination use group of TM-411 and DXL, each agent was administered at the same amount and the same administration route as those in the single administration. Tumor diameters were measured every day from the day of the start of the administration (the 1st day) to the next day of the completion of the administration (the 29th day), and effect on suppression of the growth was investigated. […] In a control group, physiological saline was administered at the same amount and the same administration route as those in the single administration of each agent.

Experiment [2] relates to human multiple myeloma U266. The experiment is described as follows: Blood human IgE in NOG mice transplanted with human multiple myeloma U266. It is filed as in vivo. Particulars: for effect on blood concentration of human IgE (in words): NOG mice transplanted with U266; for Blood IgE level / Suppression ratio (blood IgE): NOG mice, 6 weeks after transplantation of U266. The protocol: Prednisolone (hereinafter, abbreviated to “PSL”), which is a general name of that manufactured by Shionogi & Co., Ltd., was used as a chemotherapeutic agent.
Seven-week-old NOD/SCID/γc^null (NOG) mice were divided into five groups of ten mice each (nine mice only in a control group), and […] cells of multiple myeloma cell line U266 were transplanted to each mouse via tail vein injection (the 0th day). The first group was used as a non-treated control group; in the second group, 1 mg/kg of TM-411 was orally administered for 28 days from the first day; in the third group, 3 mg/kg of TM-411 was orally administered for 28 days from the first day; in the fourth group, 7.5 mg/kg of PSL was orally administered for 8 days from the 21st day; and in the fifth group, 1 mg/kg of TM-411 was orally administered for 28 days from the first day and 7.5 mg/kg of PSL was orally administered in addition to the TM-411 for 8 days from the 21st day. Blood concentration of human IgE was measured 6 weeks after the transplantation of U266.

[3] abbreviates: PSL 7.5 mg/kg oral 8 days from 21st day.

For the compound `O=c1[nH]cc(F)c(=O)[nH]1` [5-FU, Fluorouracil], the tumor volume in the experiment with human liver cancer JHH-7 (1st day) came to 126.6 mm^3; in the experiment on human liver cancer JHH-7 (4th day), 193.8 mm^3; in the experiment on human liver cancer JHH-7 (7th day), 291.6 mm^3; in the experiment on human liver cancer JHH-7 (11th day), 496.6 mm^3; in the experiment with human liver cancer JHH-7 (14th day), 697.5 mm^3; with human liver cancer JHH-7 (18th day), 1071 mm^3. Further, the tumor volume in the experiment with human liver cancer JHH-7 (21st day) worked out at 1408 mm^3. Further, the “effect on suppression of the growth of the tumor (in words)” value (from here on “effect on suppression”) with human liver cancer JHH-7 was “suppressed”.

On to `COc1cccc2c1C(=O)c1c(O)c3c(c(O)c1C2=O)C[C@@](O)(C(=O)CO)C[C@@H]3O[C@H]1C[C@H](N)[C@H](O)[C@H](C)O1` [ADR, Doxorubicin], for which the tumor volume with human liver cancer HePG2 (3rd day) worked out at 4.0 mm^3; with human liver cancer HePG2 (7th day), 18.8 mm^3; in the experiment on human liver cancer HePG2 (9th day), 45.5 mm^3; in the experiment with human liver cancer HePG2 (11th day) it was 180.0 mm^3; in the experiment with human liver cancer HePG2 (13th day) it was 410.5 mm^3; with human liver cancer HePG2 (15th day), 650 mm^3. Also, the tumor volume in the experiment with human liver cancer HePG2 (17th day) came to 842 mm^3; in the experiment with human liver cancer HePG2 (20th day), 1000 mm^3. Further, the “effect on suppression” value with human liver cancer HePG2 was “suppressed the growth of the tumor”.

Regarding `CC(=O)O[C@@]12CO[C@@H]1C[C@H](O)[C@@]1(C)C(=O)[C@H](O)C3=C(C)[C@@H](OC(=O)[C@H](O)[C@@H](NC(=O)OC(C)(C)C)c4ccccc4)C[C@@](O)([C@@H](OC(=O)c4ccccc4)[C@H]21)C3(C)C` [DXL, Taxotere], the tumor volume worked out at 138.9 mm^3 in experiment [1] (1st day); 149.7 mm^3 in experiment [1] (5th day); 132.6 mm^3 in experiment [1] (8th day); 93.9 mm^3 in experiment [1] (12th day); 76.0 mm^3 in experiment [1] (15th day); 70.1 mm^3 in experiment [1] (19th day). Also, the tumor volume in experiment [1] (22nd day) amounted to 59.3 mm^3; in experiment [1] (25th day), 58.2 mm^3; in experiment [1] (29th day), 62.3 mm^3. Moreover, the “effect on suppression” value in experiment [1] was “significantly suppressed”.

On to `C[C@]12C=CC(=O)C=C1CC[C@@H]1[C@@H]2[C@@H](O)C[C@@]2(C)[C@H]1CC[C@]2(O)C(=O)CO` [PSL, Prednisolone], for which the “effect on blood concentration of human IgE (in words)” value in experiment [2] was “decreased”. Also, in experiment [2] (setting [3]), the “Blood IgE level” value is 2204 ng/mL and the “Suppression ratio (blood IgE)” value stood at 18.2%.

For the compound `CC1(C)CCC(C)(C)c2cc(NC(=O)c3ccc(C(=O)O)cc3)ccc21` [TM-411, Tamibarotene], the tumor volume in experiment [1] (1st day) was determined as 136.4 mm^3; in experiment [1] (5th day), 173.6 mm^3; in experiment [1] (8th day), 234.1 mm^3; in experiment [1] (12th day), 317.5 mm^3; in experiment [1] (15th day), 359.5 mm^3; in experiment [1] (19th day), 429.9 mm^3. Also, the tumor volume in experiment [1] (22nd day) worked out at 451.7 mm^3; in experiment [1] (25th day) it was 455.7 mm^3; in experiment [1] (29th day), 476.5 mm^3; in the experiment on human liver cancer JHH-7 (1st day) it was 136.1 mm^3; in the experiment on human liver cancer JHH-7 (4th day), 169.8 mm^3; in the experiment on human liver cancer JHH-7 (7th day) it was 201.8 mm^3. Further, the tumor volume in the experiment on human liver cancer JHH-7 (11th day) is listed as 312.7 mm^3; in the experiment with human liver cancer JHH-7 (14th day), 452.7 mm^3; with human liver cancer JHH-7 (18th day), 953.1 mm^3; with human liver cancer JHH-7 (21st day), 1097.4 mm^3; with human liver cancer HePG2 (3rd day), 15.8 mm^3; in the experiment with human liver cancer HePG2 (5th day), 21.4 mm^3. In addition, the tumor volume in the experiment with human liver cancer HePG2 (7th day) was 33.6 mm^3; in the experiment on human liver cancer HePG2 (9th day), 171.5 mm^3; in the experiment on human liver cancer HePG2 (11th day), 196 mm^3; with human liver cancer HePG2 (13th day), 256 mm^3; with human liver cancer HePG2 (15th day) it was 520 mm^3; in the experiment on human liver cancer HePG2 (17th day), 600 mm^3. For the same compound, the tumor volume in the experiment with human liver cancer HePG2 (20th day) is on record as 726 mm^3. Moreover, the figures for the “effect on suppression” value (in experiment [1]; with human liver cancer JHH-7; with human liver cancer HePG2) were “significantly suppressed”, “suppressed” and “suppressed the growth of the tumor”, respectively. Besides, the “effect on blood concentration of human IgE (in words)” value in experiment [2] was “decreased”. Further, the “Blood IgE level” value worked out at 2519 ng/mL in experiment [2] (TM-411 1 mg/kg oral 28 days) and 1755 ng/mL in experiment [2] (TM-411 3 mg/kg oral 28 days). For the same compound, the “Suppression ratio (blood IgE)” value stood at 6.5% in experiment [2] (TM-411 1 mg/kg oral 28 days) and 34.0% in experiment [2] (TM-411 3 mg/kg oral 28 days).
